Columns and labels:
[1] = test system: breast cancer cell lines / MCF10A shATR over-expressing cyclin E; assay: Aldehyde dehydrogenase assay (Aldefluor, flow cytometry), CSC depletion; assay type: cell-based, human; details: 48 hours, AZD6244 0.5 or 1.0 μM, SCH772984 0.1 or 1.0 μM, MDA-MB-231, MDA-MB-436, MCF7-stem, M158, 4T1
Method: Aldehyde dehydrogenase assay. Aldehyde dehydrogenase was detected using the Aldefluor kit ([…] Technologies) per the manufacturer's instructions. In brief, 1×10^6 cells/mL were incubated with Aldefluor reagent in presence or absence of ALDH inhibitor DEAB for 45 minutes at 37° C. Cells were washed, re-suspended in ALDH buffer, and analyzed by flow cytometry. Positive cells were gated relative to the DEAB-treated negative control. In some instances, cells were treated with AZD6244, SCH772984, or 2 μg/mL doxycycline 48 hours prior to analysis.

MCF10A shATR cells = assay: Stem cell score from gene expression; assay type: cell-based, human; details: 48 hours, 0.5 μM AZD6244, MCF10A shATR cells
Method: Microarrays. Microarray analysis was conducted as described previously (Peng et al., 2014). Specifically, total RNA was extracted from the cells 48 hours after plating in presence or absence of doxycycline using a QIAGEN RNeasy RNA isolation kit. Complementary RNA was generated using a TotalPrep RNA amplification kit and loaded onto a HumanHT-12 v4 Expression BeadChip for analysis using the manufacturer's procedure.
Expression signature score. Expression signature scores were computed based on correlation coefficient between the coefficients in the gene signature and corresponding expression level in a given sample (McGrail et al., 2017; van de Vijver et al., 2002), with higher values representing a stronger correlation.

[2] = test system: RSRD cells (MCF-10A cyclin E); assay: Senescence assay (senescence-associated β galactosidase staining); assay type: cell-based, human; details: 0.5 μM AZD6244 (MEKi) or 0.1 μM ERKi (SCH772984) for 48 hours
Method: Senescence assay. shCTRL, shCTRL_cycE, and RSRD cells (5×10^4) were seeded in 6 wells for 48 h prior to treatment with MEK or ERK inhibitors in presence or absence of 2 μg/mL doxycycline to induce cyclin E expression. After the addition of these inhibitors, cells were cultured for another 48 h. Next, a senescence assay was performed using the senescence β-galactosidase staining kit according to the manufacturer's protocol. The percentage of senescent cells was calculated using the ratio of SA-βgal-positive cells to total cells. Mammosphere Formation Assay RSR defect model cells (5000) were seeded in an ultra-low-attachment surface 6-well plate (Corning) in mammosphere medium (50% DMEM, 50% DMEM/F12, […] hydrocortisone, 10 μg/mL insulin, 20 ng/mL recombinant EGF, 100 ng/mL cholera toxin) for 7 days in presence or absence of 2 μg/mL doxycycline to induce cyclin E expression. Spheres with diameters larger than 50 μm were scored as mammospheres.

p21 = assay: Western blot of p21 protein; assay type: cell-based, human; details: 0.5 μM AZD6244 or 0.1 μM SCH772984 for 48 hours, doxycycline 2 μg/mL
[3] = test system: 4T1 murine mammary carcinoma; assay: 4T1 murine mammary carcinoma in syngeneic mice, combination with anti-PD1; assay type: in vivo; details: 25 mg/kg AZD7762 plus 10 mg/kg anti-PD1 (clone RMP1-14), Balb\C mice
From the text: FIG. 18. […] The 4T1 murine mammary carcinoma was implanted into syngeneic (Balb\C) mice and allowed to grow to ˜[…] before randomization.

p53 = assay: Western blot of p53 levels; assay type: cell-based, human; details: 0.1 μM SCH772984 for 48 hours vs DMSO
MDM2 phosphorylation = assay: Western blot of MDM2 phosphorylation; assay type: cell-based, human; details: 0.1 μM SCH772984 for 48 hours vs DMSO
ATR = ATR (Homo sapiens, UniProt Q13535); details: read-out: kinase inhibition IC50; cited from earlier work
Sequence of ATR (Q13535 whole entry): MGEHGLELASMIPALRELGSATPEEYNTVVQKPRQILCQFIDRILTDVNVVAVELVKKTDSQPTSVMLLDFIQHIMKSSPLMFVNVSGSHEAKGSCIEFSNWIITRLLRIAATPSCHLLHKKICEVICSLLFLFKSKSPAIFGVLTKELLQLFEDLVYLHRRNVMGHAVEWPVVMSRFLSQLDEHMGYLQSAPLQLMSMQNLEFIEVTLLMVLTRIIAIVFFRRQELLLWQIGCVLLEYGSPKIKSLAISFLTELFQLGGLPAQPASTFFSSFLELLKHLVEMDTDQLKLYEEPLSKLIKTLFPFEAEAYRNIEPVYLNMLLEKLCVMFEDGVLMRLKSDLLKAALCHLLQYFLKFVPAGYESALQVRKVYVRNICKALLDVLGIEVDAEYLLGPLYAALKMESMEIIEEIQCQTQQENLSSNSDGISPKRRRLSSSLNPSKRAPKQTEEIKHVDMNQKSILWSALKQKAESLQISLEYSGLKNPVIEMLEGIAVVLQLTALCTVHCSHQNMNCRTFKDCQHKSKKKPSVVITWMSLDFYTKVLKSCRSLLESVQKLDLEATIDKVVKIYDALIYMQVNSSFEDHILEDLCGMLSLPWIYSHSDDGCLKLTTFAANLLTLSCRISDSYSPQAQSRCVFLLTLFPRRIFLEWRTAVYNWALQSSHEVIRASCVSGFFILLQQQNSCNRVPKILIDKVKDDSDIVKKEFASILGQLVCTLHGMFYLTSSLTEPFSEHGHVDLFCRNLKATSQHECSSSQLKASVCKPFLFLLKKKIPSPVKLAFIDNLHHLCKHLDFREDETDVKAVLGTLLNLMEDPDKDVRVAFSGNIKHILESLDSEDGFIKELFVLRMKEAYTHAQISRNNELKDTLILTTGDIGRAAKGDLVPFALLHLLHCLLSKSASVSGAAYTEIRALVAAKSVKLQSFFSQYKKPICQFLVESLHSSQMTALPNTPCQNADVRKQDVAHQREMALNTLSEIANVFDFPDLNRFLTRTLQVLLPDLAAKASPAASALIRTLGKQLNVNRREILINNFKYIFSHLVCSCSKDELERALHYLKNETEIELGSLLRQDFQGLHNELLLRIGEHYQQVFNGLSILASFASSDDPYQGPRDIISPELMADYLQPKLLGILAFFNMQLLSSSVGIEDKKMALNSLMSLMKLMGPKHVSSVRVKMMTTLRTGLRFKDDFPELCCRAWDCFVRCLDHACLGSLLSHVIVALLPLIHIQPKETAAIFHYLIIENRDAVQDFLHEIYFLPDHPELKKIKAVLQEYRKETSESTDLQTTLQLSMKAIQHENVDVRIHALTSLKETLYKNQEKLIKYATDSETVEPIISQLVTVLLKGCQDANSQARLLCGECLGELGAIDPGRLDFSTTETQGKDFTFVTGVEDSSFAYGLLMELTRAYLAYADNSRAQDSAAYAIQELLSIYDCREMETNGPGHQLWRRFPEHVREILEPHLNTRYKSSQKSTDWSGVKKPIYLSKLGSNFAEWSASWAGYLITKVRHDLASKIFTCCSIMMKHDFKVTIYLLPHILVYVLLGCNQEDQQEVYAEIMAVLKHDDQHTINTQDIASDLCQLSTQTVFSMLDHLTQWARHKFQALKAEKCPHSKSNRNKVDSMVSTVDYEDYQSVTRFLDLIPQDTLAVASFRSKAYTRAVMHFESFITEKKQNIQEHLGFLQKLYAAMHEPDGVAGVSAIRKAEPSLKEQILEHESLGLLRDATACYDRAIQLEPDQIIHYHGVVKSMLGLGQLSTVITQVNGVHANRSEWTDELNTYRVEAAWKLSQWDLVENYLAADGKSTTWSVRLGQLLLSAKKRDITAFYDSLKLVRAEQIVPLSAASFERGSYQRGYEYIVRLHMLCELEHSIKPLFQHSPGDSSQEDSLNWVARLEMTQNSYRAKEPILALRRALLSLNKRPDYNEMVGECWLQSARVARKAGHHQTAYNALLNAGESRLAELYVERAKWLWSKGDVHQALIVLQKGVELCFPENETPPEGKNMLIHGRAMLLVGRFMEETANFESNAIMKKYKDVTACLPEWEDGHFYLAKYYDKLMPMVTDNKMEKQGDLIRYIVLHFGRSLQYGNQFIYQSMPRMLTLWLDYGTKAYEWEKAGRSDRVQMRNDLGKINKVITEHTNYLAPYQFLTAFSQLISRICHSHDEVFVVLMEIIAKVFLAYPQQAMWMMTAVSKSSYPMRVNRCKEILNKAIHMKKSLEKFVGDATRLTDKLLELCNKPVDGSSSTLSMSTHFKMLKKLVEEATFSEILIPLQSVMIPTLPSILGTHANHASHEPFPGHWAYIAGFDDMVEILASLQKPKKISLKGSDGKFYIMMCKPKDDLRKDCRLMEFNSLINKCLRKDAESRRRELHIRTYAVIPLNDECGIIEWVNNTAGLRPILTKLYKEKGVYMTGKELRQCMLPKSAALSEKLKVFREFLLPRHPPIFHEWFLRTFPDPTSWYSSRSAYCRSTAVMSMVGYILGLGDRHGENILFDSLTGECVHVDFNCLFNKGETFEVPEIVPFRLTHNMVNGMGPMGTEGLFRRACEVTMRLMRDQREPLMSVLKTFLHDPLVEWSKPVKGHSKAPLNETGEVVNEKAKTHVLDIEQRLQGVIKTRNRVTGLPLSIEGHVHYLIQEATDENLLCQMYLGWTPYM
Sequence of ATR (Q8WXE1 whole entry partner): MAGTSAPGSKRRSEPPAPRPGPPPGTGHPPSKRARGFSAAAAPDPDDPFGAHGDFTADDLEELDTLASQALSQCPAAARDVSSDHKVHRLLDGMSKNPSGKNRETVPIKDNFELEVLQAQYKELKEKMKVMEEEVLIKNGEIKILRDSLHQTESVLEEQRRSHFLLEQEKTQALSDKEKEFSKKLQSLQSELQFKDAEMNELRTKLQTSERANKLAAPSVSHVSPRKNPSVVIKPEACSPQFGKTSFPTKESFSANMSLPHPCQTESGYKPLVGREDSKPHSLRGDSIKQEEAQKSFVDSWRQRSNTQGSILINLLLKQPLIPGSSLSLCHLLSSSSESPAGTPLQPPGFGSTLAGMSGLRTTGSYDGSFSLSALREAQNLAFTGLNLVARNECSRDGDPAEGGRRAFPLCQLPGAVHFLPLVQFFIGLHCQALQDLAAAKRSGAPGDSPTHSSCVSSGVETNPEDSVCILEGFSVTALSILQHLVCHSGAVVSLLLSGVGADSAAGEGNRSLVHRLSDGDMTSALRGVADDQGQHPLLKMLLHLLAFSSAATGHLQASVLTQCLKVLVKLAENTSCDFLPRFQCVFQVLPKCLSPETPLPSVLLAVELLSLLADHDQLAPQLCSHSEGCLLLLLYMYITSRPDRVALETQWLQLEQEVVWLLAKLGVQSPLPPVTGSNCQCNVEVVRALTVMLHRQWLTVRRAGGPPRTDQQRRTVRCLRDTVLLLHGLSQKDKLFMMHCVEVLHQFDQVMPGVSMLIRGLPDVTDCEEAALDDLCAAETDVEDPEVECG

GBM patients = details: neoadjuvant treatment, Cloughesy et al. (2019); cited from earlier work

| Compound | CSC depletion by aldehyde dehydrogenase (ALDH) positivity [1] | oncogene-induced senescence by staining for senescence-associated β galactosidase [2] | p21 protein expression (p21) | further results |
| --- | --- | --- | --- | --- |
| Cn1cnc2c(F)c(Nc3ccc(Br)cc3Cl)c(C(=O)NOCCO)cc21 [AZD6244] | CSCs are depleted | restores oncogene-induced senescence | recovers p21 protein expression | Stem cell score (MCF10A shATR cells): can reverse the stem-cell phenotype |
| NC(=O)Nc1cc(-c2cccc(F)c2)sc1C(=O)N[C@H]1CCCNC1 [AZD7762] |  |  |  | tumor growth, sensitization to immunotherapy [3]: sensitizes cells to immunotherapy |
| O=C(Nc1ccc2[nH]nc(-c3ccncc3)c2c1)[C@@H]1CCN(CC(=O)N2CCN(c3ccc(-c4ncccn4)cc3)CC2)C1 [SCH772984] | CSCs are depleted | restores oncogene-induced senescence | recovers p21 protein expression | p53 levels (p53): negligible changes in p53 levels; MDM2 phosphorylation (MDM2 phosphorylation): suppression of MDM2 phosphorylation |
| CS(=O)(=O)c1ccc(-c2cnc(N)c(C(=O)Nc3ccccc3)n2)cc1 [VE821] |  |  |  | IC50 (ATR): 15 nM |
| pembrolizumab: anti-PD-1 antibody described in WO2009/114335 |  |  |  | improvement in survival (GBM patients): 6.2 month |

Source: patent US11851712B2, “Replication stress response biomarkers for immunotherapy response” (Board of Regents, The University of Texas System, priority 2018, dated 2023)
